pIC50: −log10 of the molar value. Structures can show the parent of a compound that is named as a salt. Where two headings read alike, the source gives them in different places.
Legend:
[1] = format: cell-based
Protocol: Exponentially growing were treated with the following compounds for 1 hour and 5 days. Insoluble compounds were formulated in a small amount (0.3%) of DMSO for biological evaluation. Cell viability was determined by the calorimetric MTT assay using 3(4,5-dimethylthiazol-2-yl)-2,5-diphenyl-2H-tetrazolium bromide according to well-established procedures (see Berridge, et al. (1996) for a general protocol of this type of assay).

[2] = tested on: MHEC-5T hemangioendothelioma tumor; format: in vivo; settings: 100 mg/kg single i.p. dose, 24 hours post-treatment, SCID mice with MHEC5-T tumor
Protocol: The vascular effects of the following compounds were assessed in tumor-bearing mice using a fluorescent-bead assay. A MHEC-5T hemangioendothelioma tumor model was established by subcutaneous injection of 0.5×10^6 cultured MHEC5-T cells into the right flank of Fox Chase CB-17 SCID mice and allowed to grow to a size of 300 mm^3 before i.p. injection with a single dose of saline control or compound. At 24 hours post-treatment, mice were i.v. injected with 0.25 ml of diluted FluoSphere beads (1:6 in physiological saline) in the tail vein, and sacrificed after 3 minutes. Tumor cryosections at a thickness of 8 um were directly examined using quantitative fluorescent microscopy. For quantification, image analysis of 3 sections from three tumor treated in each group were examined and vascular shutdown was expressed a vessel area per tissue area (mm^2) in percentage of the control.

tubulin = assay: Inhibition of tubulin polymerization; format: biochemical
human cancer cell lines = assay: MTT cytotoxicity of combretastatins and prodrugs (Table 1); format: cell-based
[3] = treated for 1 hour, read-out: IC50 @ 1 h
[4] = treated for 5 days, read-out: IC50 @ 5 days
[5] = 1 h, read-out: MTT Cytotoxicity (IC50) at 1 hour
[6] = 5 h, read-out: MTT Cytotoxicity (IC50) at 5 hours

COc1ccc(/C=C\c2cc(OC)c(OC)c(OC)c2)c(F)c1O [ZSB-41A, 2′-Fluoro-3′-Hydroxy-3,4,4′,5-tetramethoxy-(Z)-stilbene]
pIC50 [1, 3]: 5.10
pIC50 [1, 4]: 7.82

CA4P n-Octyl Ester, Ammonium Salt [Oxi-com210]
% Blood Flow Shutdown (100 mg/kg) [2]: 89%

COc1ccc(/C=C\c2cc(OC)c(OC)c(OC)c2)c(Br)c1O [ZSB-16, 2′-Bromo-3′-Hydroxy-3,4,4′,5-tetramethoxy-(Z)-stilbene]
pIC50 [1, 3]: 5.70
pIC50 [1, 4]: 8.17

COc1ccc(/C=C\c2cc(OC)c(OC)c(OC)c2)cc1OP(=O)(O)OC1CCCCC1 [Oxi-com191, CA4P Cyclohexane Ester, Ammonium Salt]
pIC50 [1, 3]: 4.46
pIC50 [1, 4]: 6.89

COc1ccc(/C=C\c2cc(OC)c(OC)c(OC)c2)c(N)c1 [ZSB-39B, 2′-Amino-3,4,4′,5-tetramethoxy-(Z)-stilbene]
% Blood Flow Shutdown (100 mg/kg) [2]: 50%

COc1cc(/C=C\c2cc(O)c(OC)c([N+](=O)[O-])c2)cc(OC)c1OC [ZSB-43, 3′-Hydroxy, 5′-Nitro-3,4,4′,5-tetramethoxy-(Z)-stilbene]
pIC50 [1, 3]: 5.10
pIC50 [1, 4]: 5.89

COc1cc(OP(=O)([O-])[O-])c(/C=C\c2cc(OC)c(OC)c(OC)c2)cc1OP(=O)([O-])[O-].[Na+].[Na+].[Na+].[Na+] [ZSB-33B, 2′,5′-Tetrasodium Diphosphate-3,4,4′,5-tetramethoxy-(Z)-stilbene]
% Blood Flow Shutdown (100 mg/kg) [2]: 51%

COc1ccc(/C=C\c2cc(OC)c(OC)c(OC)c2)c(O)c1 [ZSB-46A, 2′-Hydroxy-3,4,4′,5-tetramethoxy-(Z)-stilbene]
pIC50 [1, 3]: 4.37
pIC50 [1, 4]: 7.17

COc1ccc(/C=C\c2cc(OC)c(OC)c(OC)c2)c(O)c1O [CA-1, combretastatin A-1]
pIC50 (tubulin): 5.40 to 5.70
activity with tubulin (tubulin): active with tubulin
pIC50 (human cancer cell lines; [5]): 5.00
pIC50 (human cancer cell lines; [6]): 7.30

COc1cc(/C=C\c2ccc(OC)c(OP(=O)([O-])[O-])c2OC)cc(OC)c1OC.[Na+].[Na+] [ZSB-27B, 3′-Disodium Phosphate-3,3′,4,4′,5-pentamethoxy-(Z)-stilbene]
% Blood Flow Shutdown (100 mg/kg) [2]: 41%

3′,5′-Tetrasodium Phosphate-3,4,4′,5-tetramethoxy-(Z)-stilbene [ZSB-2B]
% Blood Flow Shutdown (100 mg/kg) [2]: 65%
pIC50 [1, 3]: 4.60
pIC50 [1, 4]: 6.00

COc1cc(/C=C\c2ccc(OC)c(OP(=O)(O)O)c2OP(=O)(O)O)cc(OC)c1OC [CA-1P]
pIC50 (tubulin): < 4.40
activity with tubulin (tubulin): not active with tubulin
pIC50 (human cancer cell lines; [5]): 5.49
pIC50 (human cancer cell lines; [6]): 8.34

COc1ccc(/C=C\c2cc(OC)c(OC)c(OC)c2)c(O)c1Br [ZSB-26A, 2′ Hydroxy-3′-bromo-3,4,4′,5-tetramethoxy-(Z)-stilbene]
pIC50 [1, 3]: 5.51
pIC50 [1, 4]: 7.80

COc1ccc(/C=C\c2cc(OC)c(OC)c(OC)c2)cc1OP(=O)(O)OC [Oxi-com209, CA-4P Methyl Ester, Ammonium Salt]
pIC50 [1, 3]: 4.42
pIC50 [1, 4]: 7.15

COc1ccc(/C=C\c2cc(OC)c(OC)c(OC)c2)cc1OP(=O)(O)O [CA-4P]
pIC50 (tubulin): < 4.40
pIC50 (human cancer cell lines; [5]): 6.10
pIC50 (human cancer cell lines; [6]): 8.70

COc1ccc(/C=C\c2cc(OC)c(OC)c(OC)c2)cc1O [CA-4, Combretastatin A-4]
pIC50 (human cancer cell lines; [5]): 7.00
pIC50 (human cancer cell lines; [6]): 7.30

COc1ccc(/C=C\c2cc(OC)c(OC)c(OC)c2)c(NC(=O)C(N)CO)c1 (centres unmarked) [ZSB-45, 2′serinamide-3,4,4′,5-tetramethoxy-(Z)-stilbene]
% Blood Flow Shutdown (100 mg/kg) [2]: 43%
pIC50 [1, 3]: 5.00
pIC50 [1, 4]: 7.30

COc1cc(/C=C\c2cc(OC)c(OC)c(OC)c2)c(I)cc1OP(=O)([O-])[O-].[Na+].[Na+] [ZSB-29B, 4′-Disodium Phosphate-2′-Iodo-3,4,5,5′-tetramethoxy-(Z)-stilbene]
% Blood Flow Shutdown (100 mg/kg) [2]: 43%

COc1ccc(/C=C\c2cc(OC)c(OC)c(OC)c2)c(N)c1N [ZSB-3B, 2′,3′-Damino-3,4,4′,5-tetramethoxy-(Z)-stilbene]
pIC50 [1, 3]: 5.62
pIC50 [1, 4]: 8.37

From patent USRE45907E1, “Functionalized stilbene derivatives as improved vascular targeting agents” (OXiGENE, Inc., priority 2001, dated 2016)
